Measurements as given in patent US20250188078A1, “SMALL MOLECULE INHIBITORS OF THE CRL4 UBIQUITIN LIGASE” (Cornell University, priority 2022, published 2025).

Tested on: MCF7 breast cancer cells
Assay: Cell killing in MCF7 cells (CellTiter Glo)
Assay type: cell-based
Conditions: Homo sapiens, MCF7, 192 h; Table 3, 0 to 20 μM compound, 8 days treatment
Experimental: CUL4A^high MDA-MB-468, CUL4^low (T47D), and MCF7 breast cancer cells were seeded in 96 well plates separately. Cells were treated with DMSO, or from 0 to 20 μM compound respectively. Replace with fresh medium and compounds every 48 hours. After 8 days treatment, cell viability was examined by CellTiter Glo kit (Promega #7570). First, transfer the appropriate volume (10 ml for Cat. #G7570) of CellTiter-Glo® Buffer into the amber bottle containing CellTiter-Glo® Substrate to reconstitute the lyophilized enzyme/substrate mixture. This forms the CellTiter-Glo® Reagent. Second, add CellTiter-Glo® Reagent in an equal volume (100 μl per well for 96-well plates) to all wells. Mix contents for 2 minutes on an orbital shaker to induce cell lysis. Incubate at room temperature for 15 minutes to stabilize luminescent signal. Then record luminescence. EC50 concentration was calculated by Prism 8 XY analysis nonlinear regression (curve fit-Log(inhibitor) vs response).

CN(c1ccc(-c2nc(C(=O)O)cc3c2[nH]c2cccc(F)c23)cc1)S(=O)(=O)c1ccccc1 [PA99, 5-fluoro-1-(4-(N-methylphenylsulfonamido)phenyl)-9H-pyrido[3,4-b]indole-3-carboxylic acid] was tested, and the EC50 was 19.5 µM.
